Results published in the RepoRT retention time repository (doi:10.1021/acs.analchem.1c00972).

Experiments:
Details in all cases: stereoisomer not certain
[1] = RP, Phenomenex Synergi Polar-RP, 100 × 3 mm, 2.5 µm, 40 °C, 0.4 mL/min, estimated dead time 1.1 min; A: water + 1 mM ammonium fluoride; B: methanol + 1 mM ammonium fluoride; C: acetonitrile; D: 50% isopropanol + 50% acetone; gradient (min/%B/%C/%D) 0/5/0/0 2/5/0/0 8/95/0/0 12/80/15/0 19/25/70/0 19.5/0/25/70 21.5/0/25/70 22.5/0/25/0 23/5/0/0
[2] = RP, Waters ACQUITY UPLC BEH C18, 100 × 1 mm, 1.7 µm, 50 °C, 0.3 mL/min, estimated dead time 0.17 min; A: water + 10 mM ammonium bicarbonate; B: 10% water + 90% methanol + 10 mM ammonium bicarbonate; gradient (min/%B) 0/0 15/100 21/100 22/0 30/0
[3] = RP, Waters ACQUITY UPLC BEH C18, 100 × 1 mm, 1.7 µm, 50 °C, 0.3 mL/min, estimated dead time 0.17 min; A: water + 0.1% formic acid + 20 mM ammonium formate; B: methanol + 0.1% formic acid + 20 mM ammonium formate; gradient (min/%B) 0/0 15/100 21/100 22/0 30/0

LC retention time [2] | LC retention time [3] | Compound | LC retention time [1]
15.5 min | 13.1 min | CCC1OC(=O)CC(O)C(C)C(OC2OC(C)C(OC3CC(C)(O)C(O)C(C)O3)C(N(C)C)C2O)C(CC=O)CC(C)C(=O)C=CC(C)=CC1COC1OC(C)C(O)C(OC)C1OC (stereo unspecified) [Tylosin] | 
9.6 min | 8.04 min | CC1COc2c(N3CCN(C)CC3)c(F)cc3c(=O)c(C(=O)O)cn1c23 (stereo unspecified) [Ofloxacin] | 
13.2 min | 9.08 min | CC(C)(C)NCC(O)COc1nsnc1N1CCOCC1 (stereo unspecified) [Timolol] | 
19.4 min | 18.9 min | CCCCCCOC(=O)c1ccccc1C(=O)OCC(CC)CCCC (stereo unspecified) [2-Ethylhexyl(hexyl)phthalate] | 
19.2 min | 16.2 min | CCOC1C(OC)C(C)OC(OC2CC3CCC4C5CC(=O)OC(CC)CCCC(OC6CCC(N(C)C)C(C)O6)C(C)C(=O)C5=CC4C3C2)C1OC (stereo unspecified) [Spinetoram] | 
7.67 min | 8.34 min | O=C(O)c1cn(C2CC2)c2cc(N3CCNCC3)c(F)cc2c1=O [Ciprofloxacin] | 
19.2 min | 16.1 min | CCC1CCCC(OC2CCC(N(C)C)C(C)O2)C(C)C(=O)C2=CC3C(C=C(C)C4CC(OC5OC(C)C(OC)C(OC)C5OC)CC43)C2CC(=O)O1 (single isomer, unassigned; isomer 2) [Spinosad (Isomer 2)] | 
7 min | 6.99 min | O=C1CCCCCN1 [epsilon-Caprolactam] | 
13.6 min | 16.7 min | O=C(Nc1ccc([N+](=O)[O-])cc1Cl)c1cc(Cl)ccc1O [Niclosamide] | 
14.7 min | 14.4 min | CCN(CC)c1ccc2c(C)cc(=O)oc2c1 [7-Diethylamino-4-methylcoumarin] | 
6.74 min | 5.66 min | CC1(C)SC2C(NC(=O)C(N)c3ccc(O)cc3)C(=O)N2C1C(=O)O (stereo unspecified) [Amoxicillin] | 
5.99 min | 5.75 min | Nc1nc(=O)n(C2CSC(CO)O2)cc1F (stereo unspecified) [Emtricitabine] | 
14.7 min | 10.4 min | CN1CCC(=C2c3ccccc3CC(=O)c3sccc32)CC1 [Ketotifen] | 
12.2 min | 9.88 min | CC(C)Nc1nc(NC(C)C)[nH]c(=O)n1 [Propazine-2-hydroxy] | 
16.6 min | 14.1 min | CCC1OC(=O)C(C)C(OC2CC(C)(OC)C(O)C(C)O2)C(C)C(OC2OC(C)CC(N(C)C)C2O)C(C)(OC)CC(C)C(=O)C(C)C(O)C1(C)O (stereo unspecified) [Clarithromycin] | 
15.9 min | 13.2 min | CCC1OC(=O)C(C)C(OC2CC(C)(OC)C(O)C(C)O2)C(C)C(OC2OC(C)CC(N(C)C)C2O)C(C)(O)CC(C)C(=O)C(C)C(O)C1(C)O (stereo unspecified) [Erythromycin] | 
14.9 min | 14.6 min | CC(C)(C)NC(=O)C1CCC2C3CCC4NC(=O)C=CC4(C)C3CCC12C (stereo unspecified) [Finasteride] | 
11.4 min | 11.2 min | CN1C(=O)CC(C)(c2ccccc2)C1=O (stereo unspecified) [Methsuximide] | 
16.5 min | 16.1 min | O=C1CCCCCCCCCCC1 [Cyclododecanone] | 
10.8 min | 10.5 min | CCOC(=O)c1ccc(N)cc1 [Benzocain] | 
14.3 min | 19.2 min | CC(CCC(=O)O)C1CCC2C3C(=O)CC4CC(O)CCC4(C)C3CCC12C (stereo unspecified) [7-Oxolithocholic acid] | 
15.4 min | 12.8 min | CNCCCC12CCC(c3ccccc31)c1ccccc12 [Maprotiline] | 
15.3 min | 15 min | C=C1C(=O)OC2C=C(C)CCC=C(C)CCC12 (single isomer, unassigned; (+)) [(+)-Costunolide] | 

Continued, compound first:

Compound | LC retention time [2] | LC retention time [3] | LC retention time [1]
CCCN(CCC)c1c([N+](=O)[O-])cc(S(N)(=O)=O)cc1[N+](=O)[O-] [Oryzalin] |  |  | 11.2 min
CN1Cc2c(ccc3c2OCO3)C2C(O)Cc3cc4c(cc3C21)OCO4 (single isomer, unassigned; (+)) [(+)-Chelidonine] | 15.3 min | 9.34 min | 
c1ccc(C2CN3CCSC3=N2)cc1 (stereo unspecified) [Levamisole] | 11.8 min | 6.7 min | 
CCCN(CCC)CCC [Tripropylamine] | 12.5 min | 6.53 min | 
CCC(C)(C)C(=O)OC1=C(c2ccc(Cl)cc2Cl)C(=O)OC12CCCCC2 [Spirodiclofen] | 18 min | 17.6 min | 
CCCCOCCOCCO [Diethylene glycol monobutyl ether] | 10.9 min | 10.8 min | 
CC(C)OC(=O)c1ccccc1C(=O)OC(C)C [Diisopropylphthalate] | 15.4 min | 15.1 min | 
CNc1nc(NC(C)C)nc(SC)n1 [Desmetryn] | 13.1 min | 11.7 min | 
O=S(=O)(c1ccc(Cl)cc1)c1ccc(Cl)cc1 [Bis(4-chlorophenyl)sulfone] | 12 min | 14.9 min | 
Nc1c(Cl)cc(C(F)(F)F)cc1Cl [2,6-Dichloro-4-trifluoromethylaniline] | 15.9 min | 16.2 min | 
CC(C)(C)C(=O)C(Oc1ccc(Cl)cc1)n1ccnc1 (stereo unspecified) [Climbazole] | 15.1 min | 13.2 min | 
CN1CCN(C2=Nc3cc(Cl)ccc3Nc3ccccc32)CC1 [Clozapine] | 15.7 min | 11.7 min | 
CNC(=O)Oc1cc(C)c(S(C)(=O)=O)c(C)c1 [Methiocarb sulfone] | 9.75 min | 9.58 min | 
Clc1cccc(Cl)c1NC1=NCCN1 [Clonidine] | 10.2 min | 7.02 min | 
CC(C)CCCCCCOC(=O)c1ccccc1C(=O)OCCCCCCC(C)C [Di-iso-nonylphthalate] | 20.5 min | 19.7 min | 
O=C(OC1CCCCC1)c1ccccc1C(=O)OC1CCCCC1 [Dicyclohexylphthalat] | 12.5 min | 14.2 min | 
COCCOCCOCCO [2-(2-(2-Methoxyethoxy)ethoxy)ethanol] | 6.68 min | 6.67 min | 
CNCCC(Oc1cccc2ccccc12)c1cccs1 (stereo unspecified) [Duloxetine] | 15.4 min | 13.2 min | 
CN1COCN(Cc2cnc(Cl)s2)C1=N | 6.91 min | 6.25 min | 

Compound | LC retention time [2] | LC retention time [3] | LC retention time [1]
O=c1c(O)c(-c2ccc(O)cc2)oc2cc(O)cc(O)c12 [Kaempferol] | 10.1 min | 12.3 min | 
CC1CCCC(O)CCCC=Cc2cc(O)cc(O)c2C(=O)O1 (stereo not drawn) [beta Zearalenol] | 13.3 min | 13.4 min | 
CCC(=O)OC(Cc1ccccc1)(c1ccccc1)C(C)CN(C)C (stereo unspecified) [Propoxyphene] | 16.8 min | 12.5 min | 
O=C(O)c1ccccc1O [Salicylic acid] | 4.78 min | 9.72 min | 
CC=C1CC(C)C(C)(O)C(=O)OCC2=CCN3CCC(OC1=O)C23 (stereo unspecified) [Senecionine] | 12.5 min | 8.65 min | 
CCOC(=O)NCCOc1ccc(Oc2ccccc2)cc1 [Fenoxycarb] | 15.6 min | 15.3 min | 
COP(=S)(OC)Oc1ccc(Sc2ccc(OP(=S)(OC)OC)cc2)cc1 [Temephos] | 17.2 min | 16.8 min | 
CC(=O)OC1CC2(C)C3(CO3)C1OC1C=C(C)C(=O)C(O)C12CO (stereo unspecified) [3-Acetyl-Deoxynivalenol] | 9.74 min | 9.62 min | 
CCCCCCCOC(=O)c1ccccc1C(=O)OCCCCCCC [Di-n-heptylphthalate] | 19.4 min | 18.9 min | 
Cc1ccc(OP(=O)(Oc2ccc(C)cc2)Oc2ccc(C)cc2)cc1 [Tricresylphosphate] | 17.7 min | 17.3 min | 
CCOC(=O)C1=NOC(c2ccccc2)(c2ccccc2)C1 [Isoxadifen-ethyl] | 15.7 min | 15.4 min | 
CCCCC(CC)COP(=O)(Oc1ccccc1)Oc1ccccc1 (stereo unspecified) [2-Ethylhexyldiphenyl phosphate] | 18.1 min | 17.7 min | 
O=[N+]([O-])c1ccc(O)c([N+](=O)[O-])c1 [2,4-Dinitrophenol] | 6.21 min | 9.71 min | 
O=C(Nc1ccccc1)Nc1ccccc1Cl [1-(2-CHLOROPHENYL)-3-PHENYLUREA] | 14.2 min | 13.9 min | 
CCCCCCCCCOC(=O)c1ccccc1C(=O)OCCCCCCCCC [Dinonylphthalate] | 20.5 min | 19.7 min | 
COc1c(C(C)(C)C)cc([N+](=O)[O-])c(C)c1[N+](=O)[O-] [Musk ambrette] | 6.58 min | 8.38 min | 
OCCN1CCN(CCC=C2c3ccccc3Sc3ccc(C(F)(F)F)cc32)CC1 [Flupentixol] | 17.3 min | 14.7 min | 
CCC1COC(Cn2cncn2)(c2ccc(Cl)cc2Cl)O1 (stereo unspecified) [Etaconazole] | 15.4 min | 15 min | 
CCOC(=O)CCN(SN(C)C(=O)Oc1cccc2c1OC(C)(C)C2)C(C)C [Benfuracarb] | 17 min | 16.6 min | 
